Experimental data from patent US9376420B2 (YUHAN CORPORATION, priority 2012, dated 2016).

Biological target: T1, human LXRβ (Homo sapiens, UniProt P55055)
T1 construct: expressed in transfected cells; host or cells: HEK293 cells (ATCC CRL-1573), transient transfection with pFA-hLXRβ/GAL4 and pUAS
T1 sequence (P55055 222-460 limits assumed): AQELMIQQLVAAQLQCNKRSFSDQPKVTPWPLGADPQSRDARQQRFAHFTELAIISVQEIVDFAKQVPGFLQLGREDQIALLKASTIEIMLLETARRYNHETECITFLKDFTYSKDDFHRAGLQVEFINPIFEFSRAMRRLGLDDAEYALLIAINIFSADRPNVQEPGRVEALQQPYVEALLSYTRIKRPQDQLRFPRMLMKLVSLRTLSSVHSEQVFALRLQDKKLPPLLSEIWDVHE
Assay: Assay for Transcriptional Activity of LXRβ (GAL4-hLXRβ LBD luciferase reporter, transient transfection)
Assay type: cell-based
Details: HEK293 cells transfected with pFA-hLXRβ/GAL4 and pUAS, 24 hours; for Emax: fold value in comparison with the control (DMSO-treated group); for EC50: increase of transcriptional activity of LXRβ, average of three independent tests
Description: The ligand-binding domain (LBD) cDNA of human LXRβ was inserted into an expression vector (pFA, Stratagene, USA) site adjacent to the yeast GAL4 transcription factor DNA binding domain to prepare an expression construct (pFA-hLXRβ/GAL4) (Willey et al., Genes & Development 9 1033-1045 (1995). The GAL4-responsive luciferase reporter plasmid, i.e., pUAS (Stratagene, USA), contained five copies of the GAL4 response element placed adjacent to the promoter and the luciferase reporter gene. The pFA-hLXRβ/GAL4 and pUAS were introduced into mammalian cells through transient transfection, followed by measuring the transcriptional activity of LXRβ.
HEK293 cells (human kidney cells, sATCC, CRL-1573) were incubated at a T-75 flask containing a DMEM supplemented with 10% fetal bovine serum (FBS) in a 37° C., until they reach about 70˜80% confluency. The culture media containing the cells was added to each well of a 96-well plate in a density of 5×10^4 cells per well. The pFA-hLXRβ/GAL4 and pUAS was transfected to the cells using a cationic-lipid transfection reagent (Lipofectamine™, Invitrogen), through culturing at 37° C. for 3 hours for transient transfection according to the manufacturer's instruction. The test compounds were dissolved in dimethyl sulfoxide (DMSO) in the concentrations of 50, 30, 10, 3, 1, 0.3, 0.1, 0.03, and 0.01 μM and then cells were treated with the prepared compound-containing solution (100 μl). The cells were incubated at 37° C. for 24 hours. After removal of the medium from each well, the lysis buffer (25 mM Tricine pH7.8, 2 mM DTT, 2 mM EGTA, 10% glycerol, 1% Triton X-100) was added with the amount of 20 μl per each well, and the plate was stirred at room temperature for 15 minutes. The luciferase reagent (prepared by adding 10 ml of the luciferase buffer (Promega) to 1 vial of the luciferase substrate (Promega)) was added to each well with the amount of 100 μl per well, followed by assaying with a luminometer according to the manufacturer's instruction.
The dose-response curve for calculating the EC50 values of the test compounds on the increase of transcriptional activity of LXRβ was prepared using the known LXR agonist (i.e., N-(2,2,2-trifluoro-ethyl)-N-[4-(2,2,2-trifluoro-1-hydroxy-1-trifluoromethyl-ethyl)-phenyl]-benzenesulfonamide) as a positive control and the vehicle (DMSO) as a negative control. The dose-response curve was produced from the 9-point curve having different concentrations at a 1/2 log unit. The EC50 value of a test compound, which is defined as a concentration for initiating the reaction corresponding to the half value between the Top value (i.e., the maximum value) and the Bottom value (baseline), was calculated according to the following equation. Y=Bottom+(Top-Bottom)/(1+10^((log EC50-X)*Hill Slope)).
In the above equation, Y is the observed value; X is the log concentration; Hill Slope is the slope of the curve; and Top and Bottom are the maximum value of test compound and the baseline value, respectively.
The following tables 1 and 2 show the EC50 values of the test compounds measured as in the above. In the tables 1 and 2, each EC50 value represents an average value obtained from three independent tests.

Row | Structure (SMILES) | Emax [fold] | EC50 [µM]
1 | O=Cc1ccc(-c2cccc(C3CC(C(F)(F)C(F)(F)F)=NN3c3ccc(F)cc3F)c2)nc1 (centres unmarked) [Example 79, 1-(2,4-difluoro-phenyl)-5-[3-(5-formyl-pyridin-2-yl)-phenyl]-3-pentafluoroethyl-4,5-dihydro-1H-pyrazole] | 46 | 0.747
2 | O=S(=O)(C1CC1)N1CCN(c2cccc(C3CC(C(F)(F)C(F)(F)F)=NN3c3ccc(F)cc3F)c2)CC1 (centres unmarked) [Example 97, 5-[3-(4-cyclopropanesulfonyl-piperazin-1-yl)-phenyl]-1-(2,4-difluoro-phenyl)-3-pentafluoroethyl-4,5-dihydro-1H-pyrazole] | 69 | 3.09
3 | OC(C1=NN(c2ccc(F)cc2F)C(c2ccc(-c3cncc(F)c3)cc2)C1)(C(F)(F)F)C(F)(F)F (centres unmarked) [Example 381, 1-(2,4-difluoro-phenyl)-5-[4-(5-fluoro-pyridin-3-yl)-phenyl)-3-[di-(trifluoromethyl)-hydroxy-methyl]-4,5-dihydro-1H-pyrazole] | 50 | 0.448
4 | COc1ncc(-c2cccc(C3CC(C(F)(F)C(F)(F)F)=NN3c3ccc(F)cc3F)c2)cc1CO (centres unmarked) [Example 90, 1-(2,4-difluoro-phenyl)-5-[3-(5-hydroxymethyl-6-methoxy-pyridin-3-yl)-phenyl]-3-pentafluoroethyl-4,5-dihydro-1H-pyrazole] | 33 | 2.65
5 | N#Cc1ccc(-c2cccc(C3CC(C(F)(F)C(F)(F)F)=NN3c3ccc(F)cc3F)c2)cn1 (centres unmarked) [Example 78, 5-[3-(2-cyano-pyridin-5-yl)-phenyl]-1-(2,4-difluoro-phenyl)-3-pentafluoroethyl-4,5-dihydro-1H-pyrazole] | 25 | 2.5
6 | O=S(=O)(C1CC1)N1CCN(c2ccnc(C3CC(C(F)(F)C(F)(F)F)=NN3c3ccc(F)cc3F)c2)CC1 (centres unmarked) [Example 184, 1-(2,4-difluoro-phenyl)-5-[4-(4-cyclopropanesulfonyl-piperazin-1-yl)-pyridin-2-yl]-3-pentafluoroethyl-4,5-dihydro-1H-pyrazole] | 81 | 2.84
7 | Cn1c(-c2ccc(C3CC(C(O)(C(F)(F)F)C(F)(F)F)=NN3c3ccc(F)cc3F)cc2)cc2ccccc21 (centres unmarked) [Example 374, 1-(2,4-difluoro-phenyl)-5-[4-(1-methyl-1H-indol-2-yl)-phenyl]-3-[di-(trifluoromethyl)-hydroxy-methyl]-4,5-dihydro-1H-pyrazole] | 60 | 0.678
8 | CS(=O)(=O)N1CC=C(c2ccc(F)c(C3CC(C(F)(F)C(F)(F)F)=NN3c3ccc(F)cc3F)c2)CC1 (centres unmarked) [Example 149, 1-(2,4-difluoro-phenyl)-5-[2-fluoro-5-(1-methanesulfonyl-1,2,3,6-tetrahydropyridin-4-yl)-phenyl]-3-pentafluoroethyl-4,5-dihydro-1H-pyrazole] | 124 | 0.303

The next lines start with the values.

Row | Emax [fold] | EC50 [µM] | Structure (SMILES)
9 | 83 | 0.0004 | CN(CCCS(=O)(=O)c1cccc(-c2ccc(C3CC(C(O)(C(F)(F)F)C(F)(F)F)=NN3c3ccc(F)cc3F)cc2)c1)C(=O)OC(C)(C)C (centres unmarked) [Example 395, 5-{3′-[3-(N-BOC-N-methyl-amino)-propane-1-sulfonyl]-biphenyl-4-yl}-1-(2,4-difluoro-phenyl)-3-(di-(trifluoromethyl)-hydroxy-methyl)-4,5-dihydro-1H-pyrazole]
10 | 15 | 5.27 | CC(C)(C)OC(=O)N1CCN(c2ccc(C3CC(C(O)(C(F)(F)F)C(F)(F)F)=NN3c3ccc(F)cc3F)cc2)CC1 (centres unmarked) [Example 404, 1-(2,4-difluoro-phenyl)-5-[4-(4-BOC-piperazin-1-yl)-phenyl]-3-[di-(trifluoromethyl)-hydroxy-methyl]-4,5-dihydro-1H-pyrazole]
11 | 88 | 0.452 | OC(C1=NN(c2ccccc2Cl)C(c2ccc(-c3ccc(F)nc3)cc2)C1)(C(F)(F)F)C(F)(F)F (centres unmarked) [Example 268, 1-(2-chloro-phenyl)-5-[4-(6-fluoro-pyridin-3-yl)-phenyl]-3-[di-(trifluoromethyl)-hydroxy-methyl]-4,5-dihydro-1H-pyrazole]
12 | 32 | 0.32 | CS(=O)(=O)c1ccc(-c2ccc(C3CC(C(O)(C(F)(F)F)C(F)(F)F)=NN3c3ccccc3Cl)cc2)c(C(F)(F)F)c1 (centres unmarked) [Example 289, 1-(2-chloro-phenyl)-5-[4′-(methylsulfonyl)-2′-(trifluoromethyl)-biphenyl-4-yl]-3-[di-(trifluoromethyl)-hydroxy-methyl]-4,5-dihydro-1H-pyrazole]
13 | 88 | 0.304 | CS(=O)(=O)N1CC=C(c2ccc(C3CC(C(O)(C(F)(F)F)C(F)(F)F)=NN3c3ccccc3Cl)cc2)CC1 (centres unmarked) [Example 298, 1-(2-chloro-phenyl)-5-[4-(1-methanesulfonyl-1,2,3,6-tetrahydropyridin-4-yl)-phenyl]-3-[di-(trifluoromethyl)-hydroxy-methyl]-4,5-dihydro-1H-pyrazole]
14 | 47 | 1.87 | COc1ccc(-c2ccc(C3CC(C(O)(C(F)(F)F)C(F)(F)F)=NN3c3ccccc3Cl)cc2)cn1 (centres unmarked) [Example 260, 1-(2-chloro-phenyl)-5-[4-(6-methoxy-pyridin-3-yl)-phenyl]-3-[di-(trifluoromethyl)-hydroxy-methyl]-4,5-dihydro-1H-pyrazole]
15 | 58 | 1.08 | COc1ccc(-c2ccc(C3CC(C(O)(C(F)(F)F)C(F)(F)F)=NN3c3ccccc3Cl)cc2)c(Cl)c1 (centres unmarked) [Example 255, 5-(2′-chloro-4′-methoxy-biphenyl-4-yl)-1-(2-chloro-phenyl)-3-[di-(trifluoromethyl)-hydroxy-methyl]-4,5-dihydro-1H-pyrazole]
16 | 101 | 0.78 | Cc1ccccc1-c1ccc(C2CC(C(O)(C(F)(F)F)C(F)(F)F)=NN2c2ccccc2Cl)c(F)c1 (centres unmarked) [Example 340, 1-(2-chloro-phenyl)-5-(3-fluoro-2′-methyl-biphenyl-4-yl)-3-[di-(trifluoromethyl)-hydroxy-methyl]-4,5-dihydro-1H-pyrazole]
17 | 43 | 4.13 | CC(C)(C)OC(=O)N1CCN(c2ccc(C3CC(C(O)(C(F)(F)F)C(F)(F)F)=NN3c3ccccc3Cl)cn2)CC1 (centres unmarked) [Example 355, 1-(2-chloro-phenyl)-5-[6-(4-BOC-piperazin-1-yl)-pyridin-3-yl]-3-[di-(trifluoromethyl)-hydroxy-methyl]-4,5-dihydro-1H-pyrazole]
18 | 36 | 0.632 | CS(=O)(=O)c1cccc(-c2ccc(C3CC(C(O)(C(F)(F)F)C(F)(F)F)=NN3c3ccccc3Cl)cc2)n1 (centres unmarked) [Example 286, 1-(2-chloro-phenyl)-5-{4-[6-(methylsulfonyl)-pyridin-2-yl]-phenyl}-3-[di-(trifluoromethyl)-hydroxy-methyl]-4,5-dihydro-1H-pyrazole]
19 | 62 | 0.042 | CS(=O)(=O)c1cccc(-c2ccc(C3CC(C(O)(C(F)(F)F)C(F)(F)F)=NN3c3ccccc3Cl)c(F)c2)c1 (centres unmarked) [Example 347, 1-(2-chloro-phenyl)-5-(3-fluoro-3′-methanesulfonyl-biphenyl-4-yl)-3-[di-(trifluoromethyl)-hydroxy-methyl]-4,5-dihydro-1H-pyrazole]
